The values that follow come from ChEMBL document CHEMBL1134647, “Design and synthesis of non-peptidic inhibitors for the Syk C-terminal SH2 domain based on structure-based in-silico screening” (J Med Chem, 2001).

For the first test, the target named is T1, Tyrosine-protein kinase SYK (Homo sapiens, UniProt P43405). The experiment in a line: Inhibitory activity against Syk C-terminal SH2 (at 10 mM). It counts as functional.
Broadly, the IC50 is the concentration at which inhibition is half-maximal. `O=C(O)CCCCCNS(=O)(=O)/C=C/c1ccccc1` came in with an IC50 of 8000 µM. That is a millimolar value.

The target in the next test is T1, Tyrosine-protein kinase SYK. Briefly: Inhibitory activity against Syk C-terminal SH2. It is filed as functional.
Take `O=C(O)CCCCCNS(=O)(=O)/C=C/c1ccc(NC(=O)[C@H]2CC[C@H](C(C(=O)O)C(=O)O)CC2)cc1`: the IC50 stood at 350 µM.

Consider `O=C(O)CCCCCN(CCCC1CCCCC1)S(=O)(=O)/C=C/c1ccc(NC(=O)[C@H]2CC[C@@H](C(C(=O)O)C(=O)O)CC2)cc1`, for which half-maximal inhibition (IC50) required 40 µM. Compared with the last molecule, the IC50 is about 8.8-fold lower.

Molecule `CC(C)CCCCN(CCCCCC(=O)O)S(=O)(=O)/C=C/c1ccc(NC(=O)[C@H]2CC[C@@H](C(C(=O)O)C(=O)O)CC2)cc1` registered an IC50 of 63 µM.

Turning to `O=C(O)C(C(=O)O)C1CCCCC1`, the IC50 was 5900 µM.

Molecule `O=C(O)CCCCCN(CCCC1CCCCC1)S(=O)(=O)/C=C/c1ccc(NC(=O)[C@H]2CC[C@H](C(C(=O)O)C(=O)O)CC2)cc1` yielded a concentration for half-maximal inhibition (IC50) of 38 µM.

Molecule `CC(C)CCCCN(CCCCCC(=O)O)S(=O)(=O)/C=C/c1ccc(NC(=O)[C@H]2CC[C@H](C(C(=O)O)C(=O)O)CC2)cc1` had an IC50 of 69 µM.

With `CC(C)CCCCN(CCCCCC(=O)O)S(=O)(=O)/C=C/c1ccc(NC(=O)C2CC=C(C(C(=O)O)C(=O)O)CC2)cc1` (stereo not given), the IC50 turned out to be 71 µM. The IC50 values of the last two molecules are within 1.5-fold of each other.

Molecule `O=C(O)CCCCCN(CCCC1CCCCC1)S(=O)(=O)/C=C/c1ccc(NC(=O)C2CC=C(C(C(=O)O)C(=O)O)CC2)cc1` (stereo not given) showed an IC50 of 41 µM.

`O=C(O)C(C(=O)O)C1CC/C=C\CCC1` (stereo not given) came in with an IC50 of 7700 µM.

Consider `O=C(O)C(C(=O)O)c1ccccc1`, for which the IC50 came out at 12000 µM.

The target is the same in a further test. The experiment in a line: Inhibitory activity against Syk C-terminal SH2 at 10 mM. It counts as functional.
The term inhibition denotes the change of the read-out against control, counted positive when it falls. As to `O=C(O)CCNS(=O)(=O)c1ccc(F)cc1`, the inhibition amounted to 0.9%.

`O=C(O)CCCNS(=O)(=O)/C=C/c1ccccc1` came in with an inhibition of 2.3%.

For `Nc1cccc2c(S(=O)(=O)NCC(=O)O)cccc12`, the inhibition came to 39%.

A further test shares this target. The experiment in a line: Inhibitory activity against Syk C-terminal SH2 domain in in-silico screening. It is filed as functional.
As for `NC(Cc1ccc(CP(=O)(O)O)cc1)C(=O)O` (stereo not given), the IC50 was determined as 14000 µM.
